Source: patent US9855259B2, “Processes of making and crystalline forms of a MDM2 inhibitor” (AMGEN INC., priority 2013, dated 2018)
Where a name gives a salt, the structure may show the parent alone.

Experiment: room-temperature solubility in toluene
Type: physicochemical
Conditions: organic solvent or mixture, 1-naphthalene sulfonate counterion

solubility: < 10000 µg/mL
Structure (SMILES): C=CC[C@@]1(C)C[C@H](c2cccc(Cl)c2)[C@@H](c2ccc(Cl)cc2)[N+]2=C1OC[C@@H]2C(C)C [oxoiminium salt, (3S,5S,6R,8S)-8-Allyl-6-(3-chlorophenyl)-5-(4-chlorophenyl)-3-isopropyl-8-methyl-2,3,5,6,7,8-hexahydrooxazolo[3,2-a]pyridin-4-ium naphthalene-1-sulfonate]
